Experiments:
Assay type in all cases: cell-based
K562 = test: MTT assay, K562 cells; conditions: Homo sapiens, 24 h, MTT, read-out: Viability rate
Procedure: After incubation (on the third day), to precipitate leukemia cells, the cell plate was centrifuged at 1500 rpm for 5 min. […] The 50 μl of supernatant was discarded from each well and 100 μl of DMSO was added to dissolve the formazan. Plates were shaken for 45 min to dissolve the dye. Then the optical density of each well was measured by using Thermo VarioSkan Flush Multimode Reader Quantum ST5-1100 at 570 nm wavelength.
The IC50 values were calculated by using GraphPad Prism. All the data presented as the mean of 6 replicates. […] Statistical analysis was performed using dose-response inhibition, log(inhibitor) vs response-variable slope, least squares (ordinary) fit.

Nalm-6 = test: MTT assay, Nalm-6 cells; conditions: Homo sapiens, 24 h, MTT, read-out: Viability rate
Molt-4 = test: MTT assay, Molt-4 cells; conditions: Homo sapiens, MOLT-4, 24 h, read-out: Viability rate
Procedure: (§1) K562, Jurkat, Molt-4, and Nalm-6 cell lines were cultured in RPMI-1640 medium (ECM2001, Euroclone), Reh cell line was cultured in DMEM medium (LM-D1111-Biosera) Hek293T cell line was cultured in IMDM medium (AL070A - HiMedia) supplemented with 10% heat-inactivated fetal bovine serum (F7524-Merck & Co., USA,) penicillin and streptomycin (P4333-Sigma Aldrich). K562, Jurkat and Molt-4 cell lines were seeded as 4x10^5/ml, Reh and Nalm-6 cell lines were seeded 5x10^5/ml, Hek293T cell line was seed as 2x10^5/ml. All cells were incubated at 5% CO2 and 37 °C. All cell lines were kindly provided by Dr. M. Sayitoglu and Dr. Ö. Hatirnaz-Ng from Acibadem University.
(§2) MTT assay is a 3-day test. On the first day, cell count was performed in Bio Rad TC-20 device with the help of trypan blue, each cell line was prepared by diluting to the specified concentrations and seeded in a 96-well plate as 100μL to each well and incubated for 1 day.
(§3) Each compound was solved in DMSO, their stock solutions (33.3, 10, 5, 1 mM, and 300 μM) were prepared by diluting with the same solvent and they were stored under −20°C when they were not used.
(§4) On the second day, stock solutions were subsequently diluted to various concentrations (0.3–200 μM) with related medium prior to experiments. Specified concentrations of the compounds were seeded in a 96-well plate as 100μL to each well and incubated for 24 h.
(§5) After incubation (on the third day), to precipitate leukemia cells, the cell plate was centrifuged at 1500 rpm for 5 min. Then, 100 μL of supernatant was removed from each well carefully and 10 μl of MTT solution (5 mg/mL) was added to each well and incubated at 37 °C for 4 h. The 50 μl of supernatant was discarded from each well and 100 μl of DMSO was added to dissolve the formazan. Plates were shaken for 45 min to dissolve the dye. Then the optical density of each well was measured by using Thermo VarioSkan Flush Multimode Reader Quantum ST5-1100 at 570 nm wavelength.
(§6) Subsequently, viability rate of the cells at each concentration, as percentage, was determined by following formula (1):
(§7) Viability rate (%)=100-[(OD(control)-OD(sample))/OD(control)×100].OD=Optical Density
(§8) The IC50 values were calculated by using GraphPad Prism. All the data presented as the mean of 6 replicates. Results were analyzed and illustrated with Graph Pad Prism (version 5; GraphPad Software, San Diego, CA, USA). Statistical analysis was performed using dose-response inhibition, log(inhibitor) vs response-variable slope, least squares (ordinary) fit.
(§9) To evaluate in-vitro anti-cancer activity of the newly synthesized compounds, they were tested by using the MTT assay in the BCR-ABL positive leukemic cell line (K562), BCR-ABL negative leukemic cell lines (Nalm-6, Molt-4, Reh and Jurkat), and non-leukemic human embryonic kidney tissue (Hek293T) cell line. […] The viability rate of each concentration was calculated by the formula stated in material and methods, the viability rate results for each cell were presented in Table S2 and Figure S44.

Reh = test: MTT assay, Reh cells; conditions: Homo sapiens, 24 h, read-out: Viability rate
Procedure: as §1, §2, §3, §4, §5, §6, §7, §8, §9

Jurkat = test: MTT assay, Jurkat cells; conditions: Homo sapiens, 24 h, read-out: Viability rate
Procedure: as §1, §2, §3, §4, §5, §6, §7, §8, §9

[1] = MTT assay, Hek293T non-leukemic control cells; conditions: human, read-out: Viability rate
Procedure: as §1, §2, §3, §4, §5, §6, §7, §8, §9

Q: Which viability at 0.3 µM (K562; K562, 0.3 μM) does the source give for `Cc1ccc(NC(=O)c2ccc(CN3CCN(C)CC3)cc2)cc1Nc1nccc(-c2cccnc2)n1` [imatinib, reference compound] here?
A: 98 ± 0.03%

Q: And the viability at 0.5 µM (K562; K562, 0.5 μM)?
A: 97.4 ± 0.06%

Q: What about the viability at 1 µM (K562; K562, 1 μM) of the same compound?
A: 95.4 ± 0.07%

Q: And the viability at 3 µM (K562; K562, 3 μM)?
A: 95.3 ± 0.05%

Q: And the viability at 5 µM (K562; K562, 5 μM)?
A: 95.4 ± 0.09%

Q: What about the viability at 10 µM (K562; K562, 10 μM) of the same compound?
A: 94.8 ± 0.09%

Q: What about the viability at 15 µM (K562; K562, 15 μM) of the same compound?
A: 88.5 ± 0.1%

Q: What about the viability at 20 µM (K562; K562, 20 μM) of the same compound?
A: 87 ± 0.04%

Q: What about the viability at 30 µM (K562; K562, 30 μM) of the same compound?
A: 72.8 ± 0.06%

Q: And the viability at 50 µM (K562; K562, 50 μM)?
A: 60.8 ± 0.1%

Q: And the viability at 70 µM (K562; K562, 70 μM)?
A: 60 ± 0.07%

Q: And the viability at 100 µM (K562; K562, 100 μM)?
A: 51.3 ± 0.05%

Q: And the viability at 150 µM (K562; K562, 150 μM)?
A: 35.1 ± 0.01%

Q: What about the viability at 200 µM (K562; K562, 200 μM) of the same compound?
A: 29.7%

Q: And the viability at 0.3 µM (Nalm-6; Nalm-6, 0.3 μM)?
A: 91 ± 0.08%

Q: What about the viability at 0.5 µM (Nalm-6; Nalm-6, 0.5 μM) of the same compound?
A: 90.7 ± 0.06%

Q: And the viability at 1 µM (Nalm-6; Nalm-6, 1 μM)?
A: 90.1 ± 0.09%

Q: And the viability at 3 µM (Nalm-6; Nalm-6, 3 μM)?
A: 84.7 ± 0.09%

Q: What about the viability at 5 µM (Nalm-6; Nalm-6, 5 μM) of the same compound?
A: 84.5 ± 0.05%

Q: What about the viability at 10 µM (Nalm-6; Nalm-6, 10 μM) of the same compound?
A: 72.9 ± 0.03%

Q: And the viability at 15 µM (Nalm-6; Nalm-6, 15 μM)?
A: 57.1 ± 0.02%

Q: And the viability at 20 µM (Nalm-6; Nalm-6, 20 μM)?
A: 52.7 ± 0.01%

Q: What about the viability at 30 µM (Nalm-6; Nalm-6, 30 μM) of the same compound?
A: 50.7 ± 0.03%

Q: What about the viability at 50 µM (Nalm-6; Nalm-6, 50 μM) of the same compound?
A: 39.7 ± 0.01%

Q: What about the viability at 70 µM (Nalm-6; Nalm-6, 70 μM) of the same compound?
A: 32.5 ± 0.05%

Q: And the viability at 100 µM (Nalm-6; Nalm-6, 100 μM)?
A: 32.2 ± 0.02%

Q: What about the viability at 150 µM (Nalm-6; Nalm-6, 150 μM) of the same compound?
A: 32.5 ± 0.01%

Q: What about the viability at 200 µM (Nalm-6; Nalm-6, 200 μM) of the same compound?
A: 29%

Q: What about the viability at 0.3 µM (Molt-4; Molt-4, 0.3 μM) of the same compound?
A: 75.6 ± 0.18%

Q: What about the viability at 0.5 µM (Molt-4; Molt-4, 0.5 μM) of the same compound?
A: 74.9 ± 0.18%

Q: What about the viability at 1 µM (Molt-4; Molt-4, 1 μM) of the same compound?
A: 75.1 ± 0.19%

Q: What about the viability at 3 µM (Molt-4; Molt-4, 3 μM) of the same compound?
A: 73.8 ± 0.17%

Q: What about the viability at 5 µM (Molt-4; Molt-4, 5 μM) of the same compound?
A: 72.7 ± 0.25%

Q: And the viability at 10 µM (Molt-4; Molt-4, 10 μM)?
A: 70.7 ± 0.21%

Q: And the viability at 15 µM (Molt-4; Molt-4, 15 μM)?
A: 70.2 ± 0.1%

Q: What about the viability at 20 µM (Molt-4; Molt-4, 20 μM) of the same compound?
A: 63.4 ± 0.1%

Q: And the viability at 30 µM (Molt-4; Molt-4, 30 μM)?
A: 63.3 ± 0.06%

Q: What about the viability at 50 µM (Molt-4; Molt-4, 50 μM) of the same compound?
A: 55.5 ± 0.05%

Q: What about the viability at 70 µM (Molt-4; Molt-4, 70 μM) of the same compound?
A: 52.1 ± 0.1%

Q: And the viability at 100 µM (Molt-4; Molt-4, 100 μM)?
A: 41.2 ± 0.06%

Q: What about the viability at 150 µM (Molt-4; Molt-4, 150 μM) of the same compound?
A: 29.8 ± 0.04%

Q: And the viability at 200 µM (Molt-4; Molt-4, 200 μM)?
A: 20.3 ± 0.02%

Q: What about the viability at 0.3 µM (Reh; 0.3 μM) of the same compound?
A: 97.6 ± 0.03%

Q: And the viability at 0.5 µM (Reh; 0.5 μM)?
A: 96.8 ± 0.03%

Q: What about the viability at 1 µM (Reh; 1 μM) of the same compound?
A: 96.4 ± 0.01%

Q: And the viability at 3 µM (Reh; 3 μM)?
A: 95.5 ± 0.02%

Q: What about the viability at 5 µM (Reh; 5 μM) of the same compound?
A: 94.5 ± 0.03%

Q: What about the viability at 10 µM (Reh; 10 μM) of the same compound?
A: 91.3 ± 0.05%

Q: And the viability at 15 µM (Reh; 15 μM)?
A: 82.4 ± 0.02%

Q: And the viability at 20 µM (Reh; 20 μM)?
A: 78.6 ± 0.02%

Q: And the viability at 30 µM (Reh; 30 μM)?
A: 70.9 ± 0.03%

Q: And the viability at 50 µM (Reh; 50 μM)?
A: 63.5 ± 0.04%

Q: What about the viability at 70 µM (Reh; 70 μM) of the same compound?
A: 62.9 ± 0.03%

Q: What about the viability at 100 µM (Reh; 100 μM) of the same compound?
A: 61.2 ± 0.01%

Q: And the viability at 150 µM (Reh; 150 μM)?
A: 60.3 ± 0.03%

Q: What about the viability at 200 µM (Reh; 200 μM) of the same compound?
A: 57 ± 0.02%

Q: And the viability at 0.3 µM (Jurkat; 0.3 μM)?
A: 68.4 ± 0.12%

Q: What about the viability at 0.5 µM (Jurkat; 0.5 μM) of the same compound?
A: 63.9 ± 0.03%

Q: What about the viability at 1 µM (Jurkat; 1 μM) of the same compound?
A: 61.5 ± 0.07%

Q: And the viability at 3 µM (Jurkat; 3 μM)?
A: 61.3 ± 0.05%

Q: What about the viability at 5 µM (Jurkat; 5 μM) of the same compound?
A: 60.7 ± 0.08%

Q: What about the viability at 10 µM (Jurkat; 10 μM) of the same compound?
A: 60.6 ± 0.14%

Q: What about the viability at 15 µM (Jurkat; 15 μM) of the same compound?
A: 57.9 ± 0.05%

Q: What about the viability at 20 µM (Jurkat; 20 μM) of the same compound?
A: 46.8 ± 0.05%

Q: And the viability at 30 µM (Jurkat; 30 μM)?
A: 34.5 ± 0.04%

Q: And the viability at 50 µM (Jurkat; 50 μM)?
A: 26.2 ± 0.05%

Q: What about the viability at 70 µM (Jurkat; 70 μM) of the same compound?
A: 17.8 ± 0.02%

Q: What about the viability at 100 µM (Jurkat; 100 μM) of the same compound?
A: 17.5 ± 0.01%

Q: And the viability at 150 µM (Jurkat; 150 μM)?
A: 17.3 ± 0.01%

Q: What about the viability at 200 µM (Jurkat; 200 μM) of the same compound?
A: 16.6%

Q: And the viability at 24 h, 0.3 µM ([1]; Hek293T cells (non-leukemic control cell line), 0.3 μM)?
A: 83.4 ± 0.02%

Q: What about the viability at 24 h, 0.5 µM ([1]; Hek293T cells (non-leukemic control cell line), 0.5 μM) of the same compound?
A: 78.6 ± 0.04%

Q: What about the viability at 24 h, 3 µM ([1]; Hek293T cells (non-leukemic control cell line), 3 μM) of the same compound?
A: 73.1 ± 0.03%

Q: And the viability at 24 h, 5 µM ([1]; Hek293T cells (non-leukemic control cell line), 5 μM)?
A: 71.5 ± 0.02%

Q: And the viability at 24 h, 10 µM ([1]; Hek293T cells (non-leukemic control cell line), 10 μM)?
A: 67.9 ± 0.01%

Q: And the viability at 24 h, 15 µM ([1]; Hek293T cells (non-leukemic control cell line), 15 μM)?
A: 59.6 ± 0.01%

Q: What about the viability at 24 h, 20 µM ([1]; Hek293T cells (non-leukemic control cell line), 20 μM) of the same compound?
A: 55.7 ± 0.03%

Q: And the viability at 24 h, 30 µM ([1]; Hek293T cells (non-leukemic control cell line), 30 μM)?
A: 53.5 ± 0.01%

Q: What about the viability at 24 h, 50 µM ([1]; Hek293T cells (non-leukemic control cell line), 50 μM) of the same compound?
A: 48.5 ± 0.05%

Q: And the viability at 24 h, 70 µM ([1]; Hek293T cells (non-leukemic control cell line), 70 μM)?
A: 42.9 ± 0.03%

Q: What about the viability at 24 h, 100 µM ([1]; Hek293T cells (non-leukemic control cell line), 100 μM) of the same compound?
A: 42.7 ± 0.03%

Q: What about the viability at 24 h, 150 µM ([1]; Hek293T cells (non-leukemic control cell line), 150 μM) of the same compound?
A: 42.5 ± 0.02%

Q: And the viability at 24 h, 200 µM ([1]; Hek293T cells (non-leukemic control cell line), 200 μM)?
A: 42.1 ± 0.01%

Q: What about the viability at 24 h, 1 µM ([1]; Hek293T cells, 1 μM) of the same compound?
A: 77.7 ± 0.03%
